Like-named read-outs stand apart in the source and are kept apart here.
Tests used:
Assay type in all cases: in vivo
[1] = test system: barnyardgrass (Echinochloa crus-galli); test: Test D flooded paddy test plant response; conditions: Flood (flooded paddy test), visual rating on scale 0 to 100 (0 no effect, 100 complete control), 13 to 15 days
Method in brief: (§1)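 Plants at 2-leaf stage in pots flooded 3 cm above soil; compounds applied directly into paddy water, depth kept throughout. After 13-15 days in greenhouse, visual rating against controls on 0-100 scale (100 = complete control).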

[2] = test system: ducksalad (Heteranthera limosa); test: Test D flooded paddy test plant response; conditions: Flood (flooded paddy test), visual rating on scale 0 to 100 (0 no effect, 100 complete control), 13 to 15 days
Method in brief: as §1

rice (Oryza sativa) = test: Test D flooded paddy test plant response; conditions: Flood (flooded paddy test), visual rating on scale 0 to 100 (0 no effect, 100 complete control), 13 to 15 days
Method in brief: as §1

[3] = test system: small-flower umbrella sedge (Cyperus difformis); test: Test D flooded paddy test plant response; conditions: Flood (flooded paddy test), visual rating on scale 0 to 100 (0 no effect, 100 complete control), 13 to 15 days
Method in brief: as §1

[4] = test system: field violet (Viola arvensis); test: Test E pre-/postemergence plant response; conditions: scale 0 to 100, read-out: Plant response rating, Field Violet; for pest or weed control at 16 g/ha: 16 g ai/ha; for pest or weed control at 31 g/ha: 31 g ai/ha; for pest or weed control at 62 g/ha: 62 g ai/ha; for pest or weed control at 125 g/ha: 125 g ai/ha
Method in brief: (§2)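 Pre-emergence: seeds sown in silt loam soil and sprayed with test chemicals in a non-phytotoxic solvent/surfactant mix. Post-emergence: plants at 2–18 cm (1- to 4-leaf stage) in peat/vermiculite medium treated with the same formulation. Visual rating versus controls after 7–21 days, 0 (no effect) to 100 (complete control).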

[5] = test system: green foxtail (Setaria viridis); test: Test E pre-/postemergence plant response; conditions: scale 0 to 100, read-out: Plant response rating, Foxtail, Green; for pest or weed control at 16 g/ha: 16 g ai/ha; for pest or weed control at 31 g/ha: 31 g ai/ha; for pest or weed control at 62 g/ha: 62 g ai/ha; for pest or weed control at 125 g/ha: 125 g ai/ha
Method in brief: as §2

[6] = test system: oilseed rape (Brassica napus); test: Test E pre-/postemergence plant response; conditions: scale 0 to 100, read-out: Plant response rating, Oilseed Rape; for plant injury at 16 g/ha: 16 g ai/ha; for plant injury at 31 g/ha: 31 g ai/ha; for plant injury at 62 g/ha: 62 g ai/ha; for plant injury at 125 g/ha: 125 g ai/ha
Method in brief: as §2

[7] = test system: speedwell (bird's-eye speedwell, Veronica persica); test: Test E pre-/postemergence plant response; conditions: scale 0 to 100, read-out: Plant response rating, Speedwell; for pest or weed control at 16 g/ha: 16 g ai/ha; for pest or weed control at 62 g/ha: 62 g ai/ha; for pest or weed control at 125 g/ha: 125 g ai/ha
Method in brief: as §2

[8] = test system: wild buckwheat (Polygonum convolvulus); test: Test E pre-/postemergence plant response; conditions: Fallopia convolvulus, scale 0 to 100, read-out: Plant response rating, Buckwheat, Wild; for pest or weed control at 16 g/ha: 16 g ai/ha; for pest or weed control at 31 g/ha: 31 g ai/ha; for pest or weed control at 62 g/ha: 62 g ai/ha; for pest or weed control at 125 g/ha: 125 g ai/ha
Method in brief: as §2

[9] = test system: wild mustard (Sinapis arvensis); test: Test E pre-/postemergence plant response; conditions: Brassica, scale 0 to 100, read-out: Plant response rating, Mustard, Wild; for pest or weed control at 16 g/ha: 16 g ai/ha; for pest or weed control at 31 g/ha: 31 g ai/ha; for pest or weed control at 62 g/ha: 62 g ai/ha; for pest or weed control at 125 g/ha: 125 g ai/ha
Method in brief: as §2

wild oat (Avena fatua) = test: Test E pre-/postemergence plant response; conditions: scale 0 to 100, read-out: Plant response rating, Oat, Wild; for pest or weed control at 16 g/ha: 16 g ai/ha; for pest or weed control at 31 g/ha: 31 g ai/ha; for pest or weed control at 62 g/ha: 62 g ai/ha; for pest or weed control at 125 g/ha: 125 g ai/ha
Method in brief: as §2

Fc1cccc(Oc2ncc(Br)cn2)c1-c1cc(C(F)F)no1 [Compound 145, 5-bromo-2-[2-[3-(difluoromethyl)-5-isoxazolyl]-3-fluorophenoxy]pyrimidine]
Plant response rating, Barnyardgrass ([1]; 31 g ai/ha): 0 | Plant response rating, Barnyardgrass ([1]; 62 g ai/ha): 0 | Plant response rating, Barnyardgrass ([1]; 125 g ai/ha): 0 | Plant response rating, Barnyardgrass ([1]; 250 g ai/ha): 35 | Plant response rating, Ducksalad ([2]; 31 g ai/ha): 80 | Plant response rating, Ducksalad ([2]; 62 g ai/ha): 85 | Plant response rating, Ducksalad ([2]; 125 g ai/ha): 95 | Plant response rating, Ducksalad ([2]; 250 g ai/ha): 95 | Plant response rating, Rice (rice (Oryza sativa); 31 g ai/ha): 0 | Plant response rating, Rice (rice (Oryza sativa); 62 g ai/ha): 15 | Plant response rating, Rice (rice (Oryza sativa); 125 g ai/ha): 15 | Plant response rating, Rice (rice (Oryza sativa); 250 g ai/ha): 35 | Plant response rating, Sedge, Umbrella ([3]; 31 g ai/ha): 60 | Plant response rating, Sedge, Umbrella ([3]; 62 g ai/ha): 75 | Plant response rating, Sedge, Umbrella ([3]; 125 g ai/ha): 90 | Plant response rating, Sedge, Umbrella ([3]; 250 g ai/ha): 90 | pest or weed control at 16 g/ha ([4]; post-emergence, Postemergence): 65% | pest or weed control at 31 g/ha ([4]; post-emergence, Postemergence): 100% | pest or weed control at 62 g/ha ([4]; post-emergence, Postemergence): 90% | pest or weed control at 125 g/ha ([4]; post-emergence, Postemergence): 100% | pest or weed control at 16 g/ha ([4]; pre-emergence, Preemergence): 100% | pest or weed control at 31 g/ha ([4]; pre-emergence, Preemergence): 100% | pest or weed control at 62 g/ha ([4]; pre-emergence, Preemergence): 100% | pest or weed control at 125 g/ha ([4]; pre-emergence, Preemergence): 100% | pest or weed control at 16 g/ha ([5]; post-emergence, Postemergence): 15% | pest or weed control at 31 g/ha ([5]; post-emergence, Postemergence): 30% | pest or weed control at 62 g/ha ([5]; post-emergence, Postemergence): 40% | pest or weed control at 125 g/ha ([5]; post-emergence, Postemergence): 98% | pest or weed control at 16 g/ha ([5]; pre-emergence, Preemergence): 0% | pest or weed control at 31 g/ha ([5]; pre-emergence, Preemergence): 45% | pest or weed control at 62 g/ha ([5]; pre-emergence, Preemergence): 55% | pest or weed control at 125 g/ha ([5]; pre-emergence, Preemergence): 100% | plant injury at 16 g/ha ([6]; post-emergence, Postemergence): 70% | plant injury at 31 g/ha ([6]; post-emergence, Postemergence): 100% | plant injury at 62 g/ha ([6]; post-emergence, Postemergence): 100% | plant injury at 125 g/ha ([6]; post-emergence, Postemergence): 100% | plant injury at 16 g/ha ([6]; pre-emergence, Preemergence): 50% | plant injury at 31 g/ha ([6]; pre-emergence, Preemergence): 100% | plant injury at 62 g/ha ([6]; pre-emergence, Preemergence): 100% | plant injury at 125 g/ha ([6]; pre-emergence, Preemergence): 100% | pest or weed control at 16 g/ha ([7]; post-emergence, Postemergence): 100% | pest or weed control at 31 g/ha ([7]; post-emergence, 31 g ai/ha, Postemergence): 100% | pest or weed control at 62 g/ha ([7]; post-emergence, Postemergence): 100% | pest or weed control at 125 g/ha ([7]; post-emergence, Postemergence): 100% | pest or weed control at 16 g/ha ([7]; pre-emergence, Preemergence): 95% | pest or weed control at 62 g/ha ([7]; pre-emergence, Preemergence): 100% | pest or weed control at 125 g/ha ([7]; pre-emergence, Preemergence): 100% | pest or weed control at 16 g/ha ([8]; post-emergence, Postemergence): 100% | pest or weed control at 31 g/ha ([8]; post-emergence, Postemergence): 100% | pest or weed control at 62 g/ha ([8]; post-emergence, Postemergence): 100% | pest or weed control at 125 g/ha ([8]; post-emergence, Postemergence): 100% | pest or weed control at 16 g/ha ([8]; pre-emergence, Preemergence): 100% | pest or weed control at 31 g/ha ([8]; pre-emergence, Preemergence): 100% | pest or weed control at 62 g/ha ([8]; pre-emergence, Preemergence): 85% | pest or weed control at 125 g/ha ([8]; pre-emergence, Preemergence): 100% | pest or weed control at 16 g/ha ([9]; post-emergence, Postemergence): 100% | pest or weed control at 31 g/ha ([9]; post-emergence, Postemergence): 100% | pest or weed control at 62 g/ha ([9]; post-emergence, Postemergence): 100% | pest or weed control at 125 g/ha ([9]; post-emergence, Postemergence): 100% | pest or weed control at 16 g/ha ([9]; pre-emergence, Preemergence): 95% | pest or weed control at 31 g/ha ([9]; pre-emergence, Preemergence): 100% | pest or weed control at 62 g/ha ([9]; pre-emergence, Preemergence): 100% | pest or weed control at 125 g/ha ([9]; pre-emergence, Preemergence): 100% | pest or weed control at 16 g/ha (wild oat (Avena fatua); post-emergence, Postemergence): 15% | pest or weed control at 31 g/ha (wild oat (Avena fatua); post-emergence, Postemergence): 30% | pest or weed control at 62 g/ha (wild oat (Avena fatua); post-emergence, Postemergence): 40% | pest or weed control at 125 g/ha (wild oat (Avena fatua); post-emergence, Postemergence): 80% | pest or weed control at 16 g/ha (wild oat (Avena fatua); pre-emergence, Preemergence): 25% | pest or weed control at 31 g/ha (wild oat (Avena fatua); pre-emergence, Preemergence): 30% | pest or weed control at 62 g/ha (wild oat (Avena fatua); pre-emergence, Preemergence): 30% | pest or weed control at 125 g/ha (wild oat (Avena fatua); pre-emergence, Preemergence): 85%

— US10131652B2, “Pyrimidinyloxy benzene derivatives as herbicides” (E. I. DU PONT DE NEMOURS AND COMPANY, priority 2014, dated 2018)
